Laboratory results reported in ChEMBL document CHEMBL5104171 (Bioorg Med Chem Lett, 2022).
Values after ≈ are worked out from the molar mass of the structure shown. One block for each compound: values may come before it.

Key:
[1] = Inhibition of RANKL-induced human osteoclast precursor cells differentiation in presence of human M-CSF and measured by tartrate-resistant acid phosphatase activity assay; type: functional, cell-based
[2] = Plasma concentration in DBA/1 mouse at 15 mg/kg, po administered once daily for 6 days and measured at 12 hrs; type: ADME, organism-based; details: time 6 day
[3] = Aqueous solubility of compound at pH 7.4; type: physicochemical
[4] = Metabolic stability in mouse liver microsomes assessed as compound remaining at 60 mins; type: ADME, Microsome; details: read-out: Stability
animal or person [5] = details: Mus musculus, DBA/1, 144 h, read-out: INH
animal or person [6] = details: Mus musculus, DBA/1, 144 h, read-out: INH; remark: listed apart in the source
[7] = Plasma concentration in DBA/1 mouse at 15 mg/kg, po administered once daily for 6 days and measured at 4 hrs; type: ADME, organism-based; details: time 6 day
animal or person [8] = details: Mus musculus, DBA/1, 144 h, read-out: INH; remark: listed apart in the source
[9] = Permeability across apical to basolateral side in human Caco-2 cells; type: ADME, cell-based; details: read-out: permeability
[10] = Plasma protein binding in human; type: ADME, cell-free; details: read-out: PPB (converted)
[11] = Plasma concentration in DBA/1 mouse at 15 mg/kg, po administered once daily for 6 days and measured at 18 hrs; type: ADME, organism-based; details: time 6 day
[12] = Metabolic stability in human liver microsomes assessed as compound remaining at 60 mins; type: ADME, Microsome; details: read-out: Stability
animal or person [13] = details: Mus musculus, DBA/1, 144 h, read-out: INH; remark: listed apart in the source
[14] = Plasma protein binding in mouse; type: ADME, cell-free; details: read-out: PPB (converted)
animal or person [15] = details: Mus musculus, DBA/1, 144 h, read-out: INH; remark: listed apart in the source
[16] = Plasma concentration in DBA/1 mouse at 15 mg/kg, po administered once daily for 6 days and measured at 2 hrs; type: ADME, organism-based; details: time 6 day
[17] = Plasma concentration in DBA/1 mouse at 15 mg/kg, po administered once daily for 6 days and measured at 24 hrs; type: ADME, organism-based; details: time 6 day
animal or person [18] = details: Mus musculus, DBA/1, 144 h, read-out: INH; remark: listed apart in the source
[19] = Plasma concentration in DBA/1 mouse at 15 mg/kg, po administered once daily for 6 days and measured at 6 hrs; type: ADME, organism-based; details: time 6 day
[20] = Plasma concentration in DBA/1 mouse at 15 mg/kg, po administered once daily for 6 days and measured at 8 hrs; type: ADME, organism-based; details: time 6 day
animal or person [21] = details: Mus musculus, DBA/1, 144 h, read-out: INH; remark: listed apart in the source
[22] = biological target: Hepatocyte growth factor receptor (Homo sapiens, UniProt P08581); assay: Inhibition of N-terminal His-Glu-TEV-tagged MET (unknown origin) (1050 to 1360 residues) measured by spectrophotometric analysis
Chain of Hepatocyte growth factor receptor (P08581 whole entry, the tested form may be a part): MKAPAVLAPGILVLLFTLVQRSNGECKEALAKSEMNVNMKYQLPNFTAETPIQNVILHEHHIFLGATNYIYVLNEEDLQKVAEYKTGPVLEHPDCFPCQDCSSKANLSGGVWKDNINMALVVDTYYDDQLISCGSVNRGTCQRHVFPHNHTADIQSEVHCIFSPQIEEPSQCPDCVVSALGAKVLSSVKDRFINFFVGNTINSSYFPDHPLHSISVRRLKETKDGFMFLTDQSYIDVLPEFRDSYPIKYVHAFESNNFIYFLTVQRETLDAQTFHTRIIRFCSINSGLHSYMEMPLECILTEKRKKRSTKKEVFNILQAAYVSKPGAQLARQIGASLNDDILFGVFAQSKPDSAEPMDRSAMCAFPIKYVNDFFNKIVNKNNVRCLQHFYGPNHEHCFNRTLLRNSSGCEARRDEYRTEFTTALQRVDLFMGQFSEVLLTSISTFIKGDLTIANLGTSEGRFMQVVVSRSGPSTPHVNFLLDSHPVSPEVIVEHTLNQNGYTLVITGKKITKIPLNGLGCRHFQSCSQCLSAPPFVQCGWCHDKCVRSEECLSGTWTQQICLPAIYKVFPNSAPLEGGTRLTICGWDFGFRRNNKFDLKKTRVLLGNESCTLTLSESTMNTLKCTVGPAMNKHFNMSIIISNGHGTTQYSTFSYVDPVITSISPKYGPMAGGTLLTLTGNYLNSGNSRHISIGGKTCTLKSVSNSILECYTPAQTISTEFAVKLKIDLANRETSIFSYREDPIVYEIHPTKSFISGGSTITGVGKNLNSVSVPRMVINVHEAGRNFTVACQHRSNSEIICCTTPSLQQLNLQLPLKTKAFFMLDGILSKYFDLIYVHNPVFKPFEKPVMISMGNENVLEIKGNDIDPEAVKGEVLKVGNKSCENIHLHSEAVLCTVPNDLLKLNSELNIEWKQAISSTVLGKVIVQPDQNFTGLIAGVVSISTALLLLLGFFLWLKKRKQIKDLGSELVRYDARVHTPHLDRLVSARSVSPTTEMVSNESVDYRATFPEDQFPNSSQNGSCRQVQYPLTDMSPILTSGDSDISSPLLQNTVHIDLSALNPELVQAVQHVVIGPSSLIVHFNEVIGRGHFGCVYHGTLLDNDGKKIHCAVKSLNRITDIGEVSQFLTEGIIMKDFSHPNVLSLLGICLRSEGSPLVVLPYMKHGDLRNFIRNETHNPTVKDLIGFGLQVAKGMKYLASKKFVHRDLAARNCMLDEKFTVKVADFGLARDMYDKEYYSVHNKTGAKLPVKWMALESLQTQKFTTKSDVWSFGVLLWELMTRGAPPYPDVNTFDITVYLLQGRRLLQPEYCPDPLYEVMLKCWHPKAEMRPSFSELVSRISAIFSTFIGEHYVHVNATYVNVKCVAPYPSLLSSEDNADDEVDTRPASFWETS

- IC50 [1]: 1.7 nM
Compound: CN(C)CC(=O)N1CCC(c2ccc(NC(=O)c3nc(C#N)c[nH]3)c(C3=CCCCC3)c2)CC1

- concentration at 144 h [2]: 163 ng/mL
- solubility [3]: 95.6 µM (≈ 39 µg/mL)
- remaining at 1 h [4]: 91%
- concentration at 144 h [7]: 1860 ng/mL
- Papp A→B [9]: 13.9 ×10⁻⁶ cm/s
- fraction unbound [10]: 0.023
- concentration at 144 h [11]: 125 ng/mL
- remaining at 1 h [12]: 100%
- fraction unbound [14]: 0.041
- concentration at 144 h [16]: 2250 ng/mL
- concentration at 144 h [17]: 86 ng/mL
- concentration at 144 h [19]: 1430 ng/mL
- concentration at 144 h [20]: 1350 ng/mL
Compound: Cc1nc(NC(=O)NC(=O)C(C)(C)C)ccc1Oc1ccnc(-c2cnn(C)c2)c1
- inhibition in vivo at 15 mg/kg (animal or person [5]): 89%
- inhibition in vivo at 15 mg/kg (animal or person [6]): 88%
- inhibition in vivo at 15 mg/kg (animal or person [8]): 18%
- inhibition in vivo at 15 mg/kg (animal or person [13]): 94%
- inhibition in vivo at 15 mg/kg (animal or person [15]): 14%
- inhibition in vivo at 15 mg/kg (animal or person [18]): -4%
- inhibition in vivo at 15 mg/kg (animal or person [21]): 75%

- IC50 [22]: > 3300 nM
Compound: FC(F)(F)c1ccc(CNc2ccc(Cc3c[nH]c4ncc(Cl)cc34)cn2)cn1 [PEXIDARTINIB]
